# Measured values as given in the supplement of paper PMC10307832.
# Tests used:
# Assay in all cases: relative viability (nuclei count vs DMSO), 5 days (fraction); higher = more cells survive
# [1] = test system: NCI-H650
# Summary of the method: (§1)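 Lung cancer cell lines, seeded in 1536-well plates, were treated the following day by pin tool with a single drug or with five library-drug doses (not always all listed) in √10 steps on top of a fixed anchor-drug dose. Cells were fixed and nuclei stained in one step after 5 days, and nuclei were counted. Relative viability is the nuclei count for treated wells divided by that for vehicle wells, reported as medians of duplicate plates.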
# [2] = test system: NCI-H2347
# Summary of the method: as §1
# [3] = test system: EMC-BAC-2
# Summary of the method: as §1
# [4] = test system: LOU-NH91
# Summary of the method: as §1
# [5] = test system: HCC-44
# Summary of the method: as §1
# [6] = test system: NCI-H23
# Summary of the method: as §1
# [7] = test system: NCI-H727
# Summary of the method: as §1
# [8] = test system: HARA
# Summary of the method: as §1
# [9] = test system: NCI-H2087
# Summary of the method: as §1
# [10] = test system: NCI-H1993
# Summary of the method: as §1
# [11] = test system: NCI-H2126
# Summary of the method: as §1
# [12] = test system: NCI-H1395
# Summary of the method: as §1
# [13] = test system: NCI-H3122
# Summary of the method: as §1
# [14] = test system: NCI-H647
# Summary of the method: as §1
# [15] = test system: 201T
# Summary of the method: as §1
# [16] = test system: NCI-H441
# Summary of the method: as §1
# [17] = test system: NCI-H596
# Summary of the method: as §1
# [18] = test system: LCLC-103H
# Summary of the method: as §1
# [19] = test system: BEN
# Summary of the method: as §1
# [20] = test system: NCI-H522
# Summary of the method: as §1
# [21] = test system: NCI-H838
# Summary of the method: as §1
# [22] = test system: NCI-H2023
# Summary of the method: as §1
compound,measurement,setting,value
COc1cc2nccc(Oc3ccc(NC(=O)Nc4cc(C)on4)c(Cl)c3)c2cc1OC [Tivozanib] + Nc1ncn([C@H]2C[C@H](O)[C@@H](CO)O2)c(=O)n1 [Decitabine] (partner 2 µM),relative viability,[1]; first compound 0.005 µM,0.296
same,relative viability,[1]; first compound 0.01581 µM,0.299
same,relative viability,[1]; first compound 0.05 µM,0.35
same,relative viability,[1]; first compound 0.1581 µM,0.312
same,relative viability,[1]; first compound 0.5 µM,0.294
same,relative viability,[2]; first compound 0.005 µM,0.569
same,relative viability,[2]; first compound 0.01581 µM,0.594
same,relative viability,[2]; first compound 0.05 µM,0.62
same,relative viability,[2]; first compound 0.1581 µM,0.57
same,relative viability,[2]; first compound 0.5 µM,0.659
same,relative viability,[3]; first compound 0.005 µM,1.02
same,relative viability,[3]; first compound 0.01581 µM,0.977
same,relative viability,[3]; first compound 0.05 µM,0.952
same,relative viability,[3]; first compound 0.1581 µM,0.927
same,relative viability,[3]; first compound 0.5 µM,0.975
same,relative viability,[4]; first compound 0.005 µM,0.772
same,relative viability,[4]; first compound 0.01581 µM,0.8
same,relative viability,[4]; first compound 0.05 µM,0.808
same,relative viability,[4]; first compound 0.1581 µM,0.752
same,relative viability,[4]; first compound 0.5 µM,0.796
same,relative viability,[5]; first compound 0.005 µM,0.92
same,relative viability,[5]; first compound 0.01581 µM,0.964
same,relative viability,[5]; first compound 0.05 µM,0.956
same,relative viability,[5]; first compound 0.1581 µM,0.982
same,relative viability,[5]; first compound 0.5 µM,0.937
same,relative viability,[6]; first compound 0.005 µM,0.304
same,relative viability,[6]; first compound 0.01581 µM,0.279
same,relative viability,[6]; first compound 0.05 µM,0.3
same,relative viability,[6]; first compound 0.5 µM,0.309
same,relative viability,[7]; first compound 0.005 µM,0.836
same,relative viability,[7]; first compound 0.01581 µM,0.929
same,relative viability,[7]; first compound 0.05 µM,0.85
same,relative viability,[7]; first compound 0.1581 µM,0.59
same,relative viability,[7]; first compound 0.5 µM,0.905
same,relative viability,[8]; first compound 0.005 µM,0.469
same,relative viability,[8]; first compound 0.01581 µM,0.571
same,relative viability,[8]; first compound 0.05 µM,0.59
same,relative viability,[8]; first compound 0.1581 µM,0.652
same,relative viability,[8]; first compound 0.5 µM,0.793
same,relative viability,[9]; first compound 0.005 µM,0.275
same,relative viability,[9]; first compound 0.01581 µM,0.249
same,relative viability,[9]; first compound 0.05 µM,0.352
same,relative viability,[9]; first compound 0.1581 µM,0.254
same,relative viability,[9]; first compound 0.5 µM,0.348
same,relative viability,[10]; first compound 0.005 µM,0.658
same,relative viability,[10]; first compound 0.01581 µM,0.595
same,relative viability,[10]; first compound 0.05 µM,0.581
same,relative viability,[10]; first compound 0.1581 µM,0.469
same,relative viability,[10]; first compound 0.5 µM,0.592
same,relative viability,[11]; first compound 0.005 µM,0.645
same,relative viability,[11]; first compound 0.01581 µM,0.584
same,relative viability,[11]; first compound 0.05 µM,0.612
same,relative viability,[11]; first compound 0.1581 µM,0.602
same,relative viability,[11]; first compound 0.5 µM,0.578
same,relative viability,[12]; first compound 0.005 µM,0.671
same,relative viability,[12]; first compound 0.01581 µM,0.672
same,relative viability,[12]; first compound 0.05 µM,0.732
same,relative viability,[12]; first compound 0.1581 µM,0.713
same,relative viability,[12]; first compound 0.5 µM,0.617
same,relative viability,[13]; first compound 0.005 µM,0.462
same,relative viability,[13]; first compound 0.01581 µM,0.427
same,relative viability,[13]; first compound 0.05 µM,0.429
same,relative viability,[13]; first compound 0.1581 µM,0.401
same,relative viability,[13]; first compound 0.5 µM,0.563
same,relative viability,[14]; first compound 0.005 µM,0.361
same,relative viability,[14]; first compound 0.01581 µM,0.362
same,relative viability,[14]; first compound 0.05 µM,0.302
same,relative viability,[14]; first compound 0.1581 µM,0.315
same,relative viability,[14]; first compound 0.5 µM,0.394
same,relative viability,[15]; first compound 0.005 µM,0.85
same,relative viability,[15]; first compound 0.01581 µM,0.855
same,relative viability,[15]; first compound 0.05 µM,0.87
same,relative viability,[15]; first compound 0.1581 µM,0.854
same,relative viability,[15]; first compound 0.5 µM,0.896
same,relative viability,[16]; first compound 0.005 µM,0.262
same,relative viability,[16]; first compound 0.01581 µM,0.25
same,relative viability,[16]; first compound 0.05 µM,0.218
same,relative viability,[16]; first compound 0.1581 µM,0.281
same,relative viability,[16]; first compound 0.5 µM,0.224
same,relative viability,[17]; first compound 0.005 µM,0.975
same,relative viability,[17]; first compound 0.01581 µM,0.994
same,relative viability,[17]; first compound 0.05 µM,1.15
same,relative viability,[17]; first compound 0.5 µM,1.03
same,relative viability,[18]; first compound 0.005 µM,0.615
same,relative viability,[18]; first compound 0.01581 µM,0.708
same,relative viability,[18]; first compound 0.05 µM,0.732
same,relative viability,[18]; first compound 0.1581 µM,0.685
same,relative viability,[18]; first compound 0.5 µM,0.744
same,relative viability,[19]; first compound 0.005 µM,0.725
same,relative viability,[19]; first compound 0.01581 µM,0.703
same,relative viability,[19]; first compound 0.05 µM,0.761
same,relative viability,[19]; first compound 0.1581 µM,0.471
same,relative viability,[19]; first compound 0.5 µM,0.563
same,relative viability,[20]; first compound 0.005 µM,0.702
same,relative viability,[20]; first compound 0.01581 µM,0.68
same,relative viability,[20]; first compound 0.05 µM,0.696
same,relative viability,[20]; first compound 0.1581 µM,0.665
same,relative viability,[20]; first compound 0.5 µM,0.577
same,relative viability,[21]; first compound 0.005 µM,0.431
same,relative viability,[21]; first compound 0.01581 µM,0.499
same,relative viability,[21]; first compound 0.05 µM,0.446
same,relative viability,[21]; first compound 0.1581 µM,0.482
same,relative viability,[21]; first compound 0.5 µM,0.428
same,relative viability,[22]; first compound 0.005 µM,0.223
same,relative viability,[22]; first compound 0.01581 µM,0.219
same,relative viability,[22]; first compound 0.05 µM,0.24
same,relative viability,[22]; first compound 0.1581 µM,0.242
same,relative viability,[22]; first compound 0.5 µM,0.213
